Source: patent US20150050677A1, “METHODS AND SYSTEMS FOR MEASURING WHOLE BLOOD PLATELET REACTIVITY” (University of Massachusetts Medical School, priority 2013, published 2015)
Read-outs that look alike come from different tables or passages of the source.

Key:
[1] = tested on: platelet reactivity (PRU); conditions: PRU≧235; of the 1213 patients in the assay-guided group; cited from earlier work
[2] = tested on: ADP-induced platelet aggregation; conditions: for Number of subjects with clopidogrel HTPR by original PRU: post-clopidogrel
[3] = tested on: platelet reactivity (PRU); conditions: PRU value >208; of the 3283 patients screened; cited from earlier work
[4] = tested on: maximal platelet reactivity (iso-TRAP-induced platelet activation); conditions: 6-24 hours after 300-600 mg clopidogrel loading; pre-clopidogrel 279±47; p<0.0001; mean±SD
[5] = tested on: ADP-induced platelet aggregation; conditions: P<0.0001
Method: After collection of baseline blood samples but prior to coronary angiography, subjects were administered a loading dose of 300-600 mg clopidogrel. Percutaneous coronary intervention (PCI) was performed at the same time on an ad hoc basis at the discretion of the treating physician. Patients were excluded from further analysis if a glycoprotein IIb/IIIa antagonist was used during PCI.
Blood samples were collected at baseline, prior to clopidogrel administration, and 6-24 hours later, after the catheterization procedure. After discarding the first 10 ml, blood was collected into siliconized glass vacutainers containing 3.2% sodium citrate (for platelet function testing and measurement of fibrinogen and vonWillebrand factor antigen) or EDTA-containing vacutainers (for complete blood counts). The samples were maintained at room temperature and hand-delivered to the laboratory where platelet function analyses were performed within 60 minutes of collection. Aliquots of centrifuged platelet-poor plasma and serum were stored at −70° C. until batch analyzed.
Citrated blood was centrifuged to obtain platelet-rich plasma (PRP) and adjusted to a final platelet count of 180,000 mm^−3 as previously described. […]

**Q.** For COC(=O)[C@H](c1ccccc1Cl)N1CCc2sccc2C1 [clopidogrel], which “patients with clopidogrel HTPR” value [1] is on record?
**A.** 419 (35%) patients (%)

**Q.** And the “mean VerifyNow PRU following clopidogrel loading” value ([2]; 6-24 hours after 300-600 mg clopidogrel loading, pre-clopidogrel 287±56, p<0.0001, mean±SD)?
**A.** 179±90 PRU

**Q.** What about the “Number of subjects with clopidogrel HTPR by Corrected PRU” value (shortened to “Number of subjects … by Corrected PRU”) ([2]; PRU threshold ≧178, PRU corrected for hematocrit (7.5 PRU per percent around 42%)) of the same compound?
**A.** 46 (48%) subjects (%)

**Q.** What about the “Number of subjects with clopidogrel HTPR by original PRU” value (“Number of subjects … by original PRU” for short) ([2]; PRU threshold ≧178) of the same compound?
**A.** 50 (51%) subjects (%)

**Q.** And the “Number of subjects … by Corrected PRU” value ([2]; PRU threshold ≧208, PRU corrected for hematocrit)?
**A.** 33 (34%) subjects (%)

**Q.** What about the “Number of subjects … by original PRU” value ([2]; PRU threshold ≧208) of the same compound?
**A.** 39 (40%) subjects (%)

**Q.** What about the “Number of subjects … by Corrected PRU” value ([2]; PRU threshold ≧230, PRU corrected for hematocrit) of the same compound?
**A.** 21 (22%) subjects (%)

**Q.** What about the “Number of subjects … by original PRU” value ([2]; PRU threshold ≧230) of the same compound?
**A.** 31 (32%) subjects (%)

**Q.** And the “Number of subjects … by Corrected PRU” value ([2]; PRU threshold ≧235, PRU corrected for hematocrit)?
**A.** 19 (20%) subjects (%)

**Q.** And the “Number of subjects … by original PRU” value ([2]; PRU threshold ≧235)?
**A.** 30 (31%) subjects (%)

**Q.** And the “Number of subjects … by Corrected PRU” value ([2]; PRU threshold ≧236, PRU corrected for hematocrit)?
**A.** 18 (19%) subjects (%)

**Q.** What about the “Number of subjects … by original PRU” value ([2]; PRU threshold ≧236) of the same compound?
**A.** 30 (31%) subjects (%)

**Q.** And the “change in PRU following clopidogrel loading (mean PRU)” value ([2]; subjects with anemia)?
**A.** 106±89 PRU

**Q.** What about the “change in PRU following clopidogrel loading (mean PRU)” value ([2]; subjects without anemia, p=0.96 vs anemia) of the same compound?
**A.** 107±85 PRU

**Q.** And the “patients classified as having HTPR” value [3]?
**A.** 625 patients

**Q.** And the “mean BASE following clopidogrel loading” value [4]?
**A.** 298±53 Base units

**Q.** And the “median aggregation by WBA after clopidogrel loading” value ([5]; 10 μM ADP, fell from 16 (IQR;11,24))?
**A.** 4 (IQR; 0,12) ohms

**Q.** And the “median aggregation by LTA after clopidogrel loading” value ([5]; 20 μM ADP, fell from 84 (IQR;71, 94))?
**A.** 52 (IQR;37,70) percent
